Key:
Test in all cases: pIC50, kinobeads binding competition
[1] = target: MYLK (UniProt Q15746); settings: cell material: Lysate mix
Summary of the method: (§1)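 Nine compound concentrations were tested, starting at 30 μM in 1:4 steps on live Jurkat cells (60 min, 37 °C, then lysis) or in 1:5 steps on Jurkat lysate or a 1:1:1:1 HEK293/K-562/HepG2/placenta lysate mix (60 min, 4 °C). Kinobeads-bound proteins were digested and quantified with TMT10 LC-MS/MS. pIC50 values are from logistic dose-response fits in the R drc package of fold changes relative to vehicle, from biological duplicates.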

[2] = target: T1, UniProt O43318
T1 sequence (whole entry): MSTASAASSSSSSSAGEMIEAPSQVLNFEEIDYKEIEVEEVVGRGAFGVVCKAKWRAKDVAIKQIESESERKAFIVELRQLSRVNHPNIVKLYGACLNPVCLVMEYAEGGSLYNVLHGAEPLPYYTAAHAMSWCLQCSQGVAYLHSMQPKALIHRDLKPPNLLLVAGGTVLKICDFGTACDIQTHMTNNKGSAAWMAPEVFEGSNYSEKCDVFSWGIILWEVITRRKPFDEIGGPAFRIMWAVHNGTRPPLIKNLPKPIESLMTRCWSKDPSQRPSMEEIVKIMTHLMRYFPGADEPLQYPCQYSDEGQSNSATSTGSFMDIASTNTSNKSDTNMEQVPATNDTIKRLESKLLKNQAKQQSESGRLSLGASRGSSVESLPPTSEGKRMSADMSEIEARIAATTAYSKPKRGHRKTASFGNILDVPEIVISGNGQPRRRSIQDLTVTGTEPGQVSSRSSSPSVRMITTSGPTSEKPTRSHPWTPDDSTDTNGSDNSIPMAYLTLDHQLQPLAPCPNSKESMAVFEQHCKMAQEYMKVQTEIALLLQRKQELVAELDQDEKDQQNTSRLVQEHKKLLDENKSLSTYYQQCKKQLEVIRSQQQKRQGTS
Summary of the method: as §1

[3] = target: T2, SGK3 (UniProt Q96BR1)
T2 sequence (whole entry): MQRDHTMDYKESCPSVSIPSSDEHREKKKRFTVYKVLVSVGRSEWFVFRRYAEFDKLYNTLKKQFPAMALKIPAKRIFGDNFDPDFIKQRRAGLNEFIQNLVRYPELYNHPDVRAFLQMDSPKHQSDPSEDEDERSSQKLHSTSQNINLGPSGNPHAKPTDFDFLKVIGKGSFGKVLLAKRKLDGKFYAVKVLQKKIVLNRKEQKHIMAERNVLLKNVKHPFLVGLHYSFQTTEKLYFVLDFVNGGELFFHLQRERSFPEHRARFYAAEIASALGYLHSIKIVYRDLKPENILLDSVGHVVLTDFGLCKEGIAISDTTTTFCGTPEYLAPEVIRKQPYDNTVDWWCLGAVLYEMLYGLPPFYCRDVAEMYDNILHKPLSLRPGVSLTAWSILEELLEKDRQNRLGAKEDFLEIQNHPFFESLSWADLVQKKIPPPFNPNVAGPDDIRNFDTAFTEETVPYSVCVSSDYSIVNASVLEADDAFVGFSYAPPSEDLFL
Summary of the method: as §1

[4] = target: PRKCB (UniProt P05771)
Summary of the method: as §1

[5] = target: UniProt P19784
Summary of the method: as §1

[6] = target: T3, DYRK2 (UniProt Q92630)
T3 sequence (whole entry): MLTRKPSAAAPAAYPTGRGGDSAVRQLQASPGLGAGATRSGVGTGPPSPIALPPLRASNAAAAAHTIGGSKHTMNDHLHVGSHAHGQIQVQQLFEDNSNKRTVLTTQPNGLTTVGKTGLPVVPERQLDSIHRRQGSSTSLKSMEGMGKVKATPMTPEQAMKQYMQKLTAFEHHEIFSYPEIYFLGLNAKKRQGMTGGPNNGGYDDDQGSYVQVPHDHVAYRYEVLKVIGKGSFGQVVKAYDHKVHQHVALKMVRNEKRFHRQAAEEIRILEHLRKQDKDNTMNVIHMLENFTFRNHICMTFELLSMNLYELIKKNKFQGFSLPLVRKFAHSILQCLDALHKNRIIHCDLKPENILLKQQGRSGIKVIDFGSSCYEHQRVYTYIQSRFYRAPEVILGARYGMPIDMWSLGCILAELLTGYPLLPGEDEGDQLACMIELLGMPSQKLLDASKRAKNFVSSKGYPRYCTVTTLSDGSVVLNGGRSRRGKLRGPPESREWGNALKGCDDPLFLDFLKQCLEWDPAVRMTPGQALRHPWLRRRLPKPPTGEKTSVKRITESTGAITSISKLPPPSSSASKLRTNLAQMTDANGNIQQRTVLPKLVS
Summary of the method: as §1

[7] = target: T4, TTK (UniProt P33981)
T4 sequence (whole entry): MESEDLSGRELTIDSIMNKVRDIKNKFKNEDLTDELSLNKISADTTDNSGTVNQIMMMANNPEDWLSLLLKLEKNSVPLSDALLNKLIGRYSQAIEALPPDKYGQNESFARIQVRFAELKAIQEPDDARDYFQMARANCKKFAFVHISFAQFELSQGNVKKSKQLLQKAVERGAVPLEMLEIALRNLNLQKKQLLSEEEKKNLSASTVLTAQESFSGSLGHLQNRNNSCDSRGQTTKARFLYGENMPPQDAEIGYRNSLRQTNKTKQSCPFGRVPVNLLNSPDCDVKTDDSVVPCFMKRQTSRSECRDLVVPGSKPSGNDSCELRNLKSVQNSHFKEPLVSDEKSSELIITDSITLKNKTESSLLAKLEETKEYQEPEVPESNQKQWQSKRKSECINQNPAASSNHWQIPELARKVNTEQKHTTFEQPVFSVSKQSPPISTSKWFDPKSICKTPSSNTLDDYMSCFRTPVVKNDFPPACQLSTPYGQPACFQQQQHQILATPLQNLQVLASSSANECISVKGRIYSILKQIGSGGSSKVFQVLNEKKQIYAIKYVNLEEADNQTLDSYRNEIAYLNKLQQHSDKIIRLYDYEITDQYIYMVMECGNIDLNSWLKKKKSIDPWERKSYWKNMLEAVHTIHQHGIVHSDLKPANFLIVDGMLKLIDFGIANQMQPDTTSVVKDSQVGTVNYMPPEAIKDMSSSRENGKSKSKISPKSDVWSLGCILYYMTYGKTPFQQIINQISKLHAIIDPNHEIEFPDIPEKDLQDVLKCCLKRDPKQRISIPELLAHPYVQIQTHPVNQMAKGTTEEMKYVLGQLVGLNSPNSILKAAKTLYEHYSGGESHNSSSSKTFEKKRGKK
Summary of the method: as §1

[8] = target: DYRK1A (UniProt Q13627)
Summary of the method: as §1

SMILES | pIC50 [1] | pIC50 ([2]; cell material: Jurkat cells) | pIC50 ([2]; cell material: Jurkat lysate) | pIC50 ([2]; cell material: Lysate mix) | pIC50 ([3]; cell material: Jurkat cells) | pIC50 ([3]; cell material: Jurkat lysate) | pIC50 ([3]; cell material: Lysate mix) | pIC50 ([4]; cell material: Jurkat lysate) | pIC50 ([4]; cell material: Lysate mix) | pIC50 ([5]; cell material: Jurkat cells) | pIC50 ([5]; cell material: Jurkat lysate) | pIC50 ([5]; cell material: Lysate mix) | pIC50 ([6]; cell material: Jurkat cells) | pIC50 ([6]; cell material: Jurkat lysate) | pIC50 ([6]; cell material: Lysate mix) | pIC50 ([7]; cell material: Jurkat cells) | pIC50 ([7]; cell material: Jurkat lysate) | pIC50 ([7]; cell material: Lysate mix) | pIC50 ([8]; cell material: Jurkat cells) | pIC50 ([8]; cell material: Jurkat lysate) | pIC50 ([8]; cell material: Lysate mix) | pIC50 ([4]; cell material: Jurkat cells)
O=C(NCCNC(=O)c1cc(Nc2cc(C3CC3)[nH]n2)nc(N2CCN(Cc3ccc(S(=O)(=O)F)cc3)CC2)n1)OC1CC/C=C/CCC1 (stereo not drawn) | < 4.52 | 5.65 | < 4.52 | < 4.52 | 6.44 | 4.92 | 4.88 | < 4.52 | < 4.52 | 4.7 | < 4.52 | < 4.52 | < 4.52 | < 4.52 | < 4.52 | < 4.52 | < 4.52 | < 4.52 | < 4.52 | < 4.52 | < 4.52 | 
Cc1cc(Nc2cc(C(=O)NCCNC(=O)OC3CC/C=C/CCC3)nc(N3CCN(Cc4ccc(S(=O)(=O)F)cc4)CC3)n2)n[nH]1 (stereo not drawn) | < 4.52 |  |  | < 4.52 |  |  | 5.22 |  | < 4.52 |  |  | < 4.52 |  |  | < 4.52 |  |  | < 4.52 |  |  | < 4.52 | 
CCNC(=O)c1cc(Nc2cc(C3CC3)[nH]n2)nc(N2CCN(Cc3ccc(S(=O)(=O)F)cc3)CC2)n1 | < 4.52 |  |  | < 4.52 |  |  | 5.67 |  | < 4.52 |  |  | 5.47 |  |  | 4.65 |  |  | < 4.52 |  |  | < 4.52 | 
CCNC(=O)c1cc(Nc2cc(C)[nH]n2)nc(N2CCN(Cc3ccc(S(=O)(=O)F)cc3)CC2)n1 | < 4.52 |  |  | < 4.52 |  |  | 5.98 |  | < 4.52 |  |  | 5.1 |  |  | < 4.52 |  |  | < 4.52 |  |  | < 4.52 | 
C#CCNC(=O)c1cc(Nc2cc(C3CC3)[nH]n2)nc(N2CCN(Cc3ccc(S(=O)(=O)F)cc3)CC2)n1 | < 4.52 | 5.87 | < 4.52 | < 4.52 | 6.6 | 5.65 | 5.96 | < 4.52 | < 4.52 | 5.66 | < 4.52 | 4.96 | < 4.52 | < 4.52 |  | 5.56 | < 4.52 | < 4.52 | 5.41 | < 4.52 |  | 5.46
C#CCNC(=O)c1cc(Nc2cc(C)[nH]n2)nc(N2CCN(Cc3ccc(S(=O)(=O)F)cc3)CC2)n1 | < 4.52 |  |  | < 4.52 |  |  | 6.06 |  | < 4.52 |  |  | 4.78 |  |  | < 4.52 |  |  | < 4.52 |  |  | < 4.52 | 
